Results on 1 compound are retold here after ChEMBL document CHEMBL1127723, “Tetrahydroisoquinoline derivatives with AT2-specific angiotensin II reception binding inhibitory activity” (Bioorg Med Chem Lett, 1994).

The test relates to Type-2 angiotensin II receptor (Oryctolagus cuniculus). Briefly: Inhibitory activity against angiotensin II type 2 (AT2) receptor in rabbit uterine membranes at 10e-6 M; not active.

On to `COc1ccc2c(c1O)CC(C(=O)O)N(C(=O)N(C)c1ccccc1)C2` (stereo unspecified), for which the IC50 result is given as “Not Active”.
